# Experimental data reported in patent US6548555B1, “Basic drug compositions with enhanced bioavailability” (Pfizer Inc, priority 1999, dated 2003).
# Tests used:
# [1] = HPMCAS dispersions, dissolution tests at pH 4.0; cited from earlier work
# [2] = Dissolution test by microcentrifuge method, Example 6; format: physicochemical; conditions: 37° C., 2.7 mg drug, 3.6 mg polymer or none, 1.8 mL
# Procedure: Dissolution performance was measured at 37° C. using a microcentrifuge method. For these tests, 2.7 mg drug in 0.9 mLs 25% gastric solution/75% HPLC water was added to each of 6 microcentrifuge tubes. At time 0, 0.9mLs 2×PBS without polymer was added to tubes 1 and 2, and 0.9 mLs 2×PBS containing 3.6 mg HPMCAS-MF or cellulose acetate trimellitate (CAT) was added to tubes 3 and 4, or 5 and 6. Samples were taken after 4, 10, 20, 40, 90, and 180 minutes, analyzed by HPLC, and compound concentrations were calculated. Gastric solution is 84 mM HCl, 34 mM NaCl, pH 1.2. PBS is phosphate buffered saline: 20 mM sodium phosphate, 4.7 mM potassium phosphate, 8.2 mM NaCl, 0.2 mM KCl, pH 6.5. “2×PBS” is a solution in which the components of PBS are present at 2-fold higher concentration.
# [3] = Solubility of the Example 6 drug at pH 2 and pH 6.8; format: physicochemical; conditions: thermodynamic from solid
# Procedure: A test drug is dissolved in a pH 1-2 environment, typically aqueous deionized distilled water adjusted to a target pH within the aforesaid pH 1-2 range by adding an appropriate amount of hydrochloric acid. The amount of drug added is an amount sufficient to saturate the aqueous test medium. The test medium can be agitated, typically gently, by means of a stirring bar, overhead stirrer, or the like. Typically the test medium is left to sit (while being agitated) for several hours, typically overnight. The sample can then be filtered or centrifuged as previously described, and solubility in the filtrate or supernate can then be measured by determining the concentration with any suitable means of detection appropriate to the drug. Likewise, the solubility is also determined at pH 5 to 7. If the drug's pH 1-2 solubility is 3- or more-fold its pH 5-7 solubility, then the drug will benefit from this invention.
Structure (SMILES),supersaturated concentration relative to crystalline MAT [1] [fold],Drug Conc ([2]; 4 min after adding 2xPBS to drug in 25% gastric solution) [µg/mL],Drug Conc ([2]; 10 min after adding 2xPBS to drug in 25% gastric solution) [µg/mL],Drug Conc ([2]; 20 min after adding 2xPBS to drug in 25% gastric solution) [µg/mL],Drug Conc ([2]; 40 min after adding 2xPBS to drug in 25% gastric solution) [µg/mL],Drug Conc ([2]; 90 min after adding 2xPBS to drug in 25% gastric solution) [µg/mL],Drug Conc ([2]; 180 min after adding 2xPBS to drug in 25% gastric solution) [µg/mL],"solubility ([3]; deionized distilled water adjusted with hydrochloric acid, pH 2, simulated gastric fluid) [µg/mL]","solubility ([3]; pH 6.8, aqueous buffer) [µg/mL]"
"CCC1OC(=O)CC(O)C(C)C(OC2OC(C)C(OC3CC(C)(O)C(OC(=O)Cc4ccc(OC)cc4)C(C)O3)C(N(C)C)C2O)C(CC=O)CC(C)C(=O)C=CC(C)=CC1COC1OC(C)C(O)C(OC)C1OC (stereo not drawn) [MAT, 4″-O-(4-methoxyphenyl)acetyltylosin]",9,–,–,–,–,–,–,–,–
"CN1CCN(c2ccccc2/C=C2\SCCN(c3ccc(Cl)c(Cl)c3)C2=O)CC1.Cl.O [Z-4-(3,4-dichlorophenyl)-2-[2-(4-methylpiperazin-1-yl)-benzylidene]-thiomorpholin-3-one hydrochloride monohydrate]",–,518,459,432,317,263,204,3000,12
